Measurements taken from patent US7049311B1, “Pyrrolbenzodiazepines” (Spirogen Limited, priority 1998, dated 2006).
Read-outs that look alike come from different tables or passages of the source.

Key:
[1] = test system: SKOV-3; assay: Ovarian carcinoma cytotoxicity assay; format: cell-based; details: Homo sapiens
Description: (§1) Compounds of the invention (and Anthramycin as a comparison) were evaluated for their cytotoxic activity in ovarian cell lines by Dr Lloyd R. Kelland's group at The Institute of Cancer Research, Sutton, UK. The five cell lines investigated were SKOV-3, A2780/A2780cisR and CH1/CH1cisR (cis R denotes that the cell line is resistant to cisplatin).
(§2) Single viable cells were seeded in growth medium (160 μL) in […] microtitre plates and allowed to attach overnight. […] After 96 hours, the medium was removed and the remaining cells fixed by exposure to 10% trichloroacetic acid on ice for 30 minutes. The wells were then washed 3-4 times with tap water, air dried overnight and treated with 100 μL of sulphorhodamine B (0.4%) dissolved in 1% acetic acid. Staining was allowed to continue for 10-15 minutes, then the wells were washed 3-4 times with 1% acetic acid, air dried and then added to Tris base (100 μL of 10 mM). Plates were then shaken and absorbance readings at 540 nm were determined using a plate reader. By using the Quattro-Pro software package, the IC50 values were calculated from plots of concentration versus percentage absorbance (compared with 8 untreated wells).

[2] = test system: CH1; assay: Ovarian carcinoma cytotoxicity assay; format: cell-based; details: Homo sapiens
Description: as §1, §2

[3] = test system: CH1cisR; assay: Ovarian carcinoma cytotoxicity assay; format: cell-based; details: Homo sapiens, CH1cisR
Description: as §1, §2

[4] = test system: A2780cisR; assay: Ovarian carcinoma cytotoxicity assay; format: cell-based, human; details: Homo sapiens, A2780cisR
Description: as §1, §2

[5] = test system: A2780; assay: Ovarian carcinoma cytotoxicity assay; format: cell-based, human; details: Homo sapiens
Description: as §1, §2

[6] = test system: NCI-H522; assay: NCI in vitro cytotoxicity screen; format: cell-based; details: Homo sapiens, NCI-H522, 48 h, read-out: LC50
Description: (§3) The National Cancer Institute (NCI), Bethesda, Md., USA has available an in vitro cytotoxicity screen which consists of approximately 60 human tumour cell lines against which compounds are tested at a minimum of five concentrations each differing 10-fold. A 48 hour continuous exposure protocol is used, where cell viability or growth is estimated with an SRB protein assay.
(§4) The test compounds were evaluated against approximately 60 human tumour cell lines. The NCI screening procedures were described in detail by Monks and co-workers (Monks, A et al., Journal of the National Cancer Institute, 1991, 83, 757). Briefly, cell suspensions were diluted according to the particular cell type and the expected target cell density (5000-40,000 cells per well based on cell growth characteristics), and added by pipette (100 μL) into 96-well microtitre plates. The cells were allowed a preincubation period of 24 hours at 37° C. for stabilisation. Dilutions at twice the intended test concentration were added at time zero in 100 μL aliquots to the wells. The test compounds were evaluated at five 10-fold dilutions (10^−4, 10^−5, 10^−6, 10^−7 and 10^−[…]). The test compounds were incubated for 48 hours in 5% CO2 atmosphere and 100% humidity. The cells were then assayed using the sulphorhodamine B assay. A plate reader was used to read the optical densities and a microcomputer processed the readings into LC50 values, which is the dosage required to kill half of the cells.

[7] = test system: SK-MEL-2; assay: NCI in vitro cytotoxicity screen; format: cell-based; details: Homo sapiens, SK-MEL-2, 48 h, read-out: LC50
Description: as §3, §4

[8] = test system: RXF 393; assay: NCI in vitro cytotoxicity screen; format: cell-based; details: Homo sapiens, RXF 393, 48 h, read-out: LC50
Description: as §3, §4

[9] = test system: NCI-H460; assay: NCI in vitro cytotoxicity screen; format: cell-based; details: Homo sapiens, NCI-H460, 48 h, read-out: LC50
Description: as §3, §4

[10] = test system: UACC-62; assay: NCI in vitro cytotoxicity screen; format: cell-based; details: Homo sapiens, UACC-62, 48 h, read-out: LC50
Description: as §3, §4

[11] = test system: MALME-3M; assay: NCI in vitro cytotoxicity screen; format: cell-based; details: Homo sapiens, Malme-3M, 48 h, read-out: LC50
Description: as §3, §4

[12] = test system: COLO 205; assay: NCI in vitro cytotoxicity screen; format: cell-based; details: Homo sapiens, COLO 205, 48 h, read-out: LC50
Description: as §3, §4

[13] = test system: SNB-75; assay: NCI in vitro cytotoxicity screen; format: cell-based; details: Homo sapiens, SNB-75, 48 h, read-out: LC50
Description: as §3, §4

[14] = test system: KM12; assay: NCI in vitro cytotoxicity screen; format: cell-based; details: Homo sapiens, KM12, 48 h, read-out: LC50
Description: as §3, §4

[15] = test system: HCC-2998; assay: NCI in vitro cytotoxicity screen; format: cell-based; details: Homo sapiens, HCC 2998, 48 h, read-out: LC50
Description: as §3, §4

[16] = test system: A2780cisR; assay: Cytotoxicity in cisplatin-resistant A2780cisR (Example 9); format: cell-based, human
Description: (§5) Relative to the parental line, the A2780cisR subline is known to have elevated GSH levels, an increased level of repair of DNA-cisplatin adducts, and a decreased ability to uptake cisplatin (M. Smellie, et al., Br. J. Cancer, 1994, 70, 48).
(§6) The results, which were obtained by incubating the cells with the compounds for 96 hours at 37° C., and assessing the cell number using Sulforhodamine B, are presented in the table below: […]

[17] = test system: calf thymus DNA; assay: DNA helix melting temperature assay; format: binding; details: [PBD]:[DNA] ratio of 1:5, calf thymus DNA
Description: The first assay, which is described in G. B. Jones, et al., Anti-Cancer Drug Des., 1990, 5, 249, which is incorporated herein by reference, determines the effect of the test compound on the helix melting temperature of DNA. This assay is designed to give an indication of the strength and extent of cross-linking of the DNA strands by the test compound (i.e. a measure of the stabilisation of the DNA upon ligand binding).
The melting temperature was determined for a 1:5 molar ratio of [ligand] [DNA], where the calf thymus DNA concentration is […] in aqueous sodium phosphate buffer (10 mM sodium phosphate+1 mM EDTA, pH 7.00±0.01). For calf thymus DNA at pH 7.00±0.01, the melting temperature is 67.83±0.06° C. (mean value from 30 separate determinations).

[18] = test system: human ovarian carcinoma cell line A2780; assay: Cytotoxicity in A2780 (Example 9); format: cell-based; details: read-out: IC50 A2780
Description: as §5, §6

[19] = test system: SF-539; assay: NCI in vitro cytotoxicity screen; format: cell-based; details: Homo sapiens, SF-539, 48 h, read-out: LC50
Description: as §3, §4

[20] = test system: MDA-MB-435; assay: NCI in vitro cytotoxicity screen; format: cell-based; details: Homo sapiens, MDA-MB-435, 48 h, read-out: LC50
Description: as §3, §4

[21] = test system: SK-MEL-28; assay: NCI in vitro cytotoxicity screen; format: cell-based; details: Homo sapiens, SK-MEL-28, 48 h, read-out: LC50
Description: as §3, §4

[22] = test system: M14; assay: NCI in vitro cytotoxicity screen; format: cell-based; details: Homo sapiens, M14, 48 h, read-out: LC50
Description: as §3, §4

[23] = test system: MDA-N; assay: NCI in vitro cytotoxicity screen; format: cell-based; details: Homo sapiens, 48 h, read-out: LC50
Description: as §3, §4

[24] = test system: UACC-257; assay: NCI in vitro cytotoxicity screen; format: cell-based; details: Homo sapiens, UACC-257, 48 h, read-out: LC50
Description: as §3, §4

[25] = test system: approximately 60 human tumour cell lines; assay: NCI in vitro cytotoxicity screen, whole panel; format: cell-based; details: all panels
Description: as §3
as §4, with “The test compounds were incubated for 48 hours in 5% CO2 atmosphere and 100% humidity. The cells were then assayed using the sulphorhodamine B assay.” left out

[26] = SK-OV-3, 96 hours, sulphorhodamine B, read-out: IC50 Skov3
[27] = CH1, 96 hours, sulphorhodamine B, read-out: IC50 CH1
[28] = cisplatin-resistant, 96 hours, sulphorhodamine B, read-out: IC50 CH1cisR
[29] = cisplatin-resistant, 96 hours, sulphorhodamine B, read-out: IC50 A2780cisR
[30] = A2780, 96 hours, sulphorhodamine B, read-out: IC50 A2780

| Structure (SMILES) | IC50 [1, 26] [nM] | IC50 [2, 27] [nM] | IC50 [3, 28] [nM] | IC50 [4, 29] [nM] | IC50 [5, 30] [nM] | CC50 [7] [nM] | CC50 [8] [nM] | CC50 [10] [nM] | CC50 [11] [nM] | CC50 [12] [nM] | CC50 [20] [nM] | further results |
| --- | --- | --- | --- | --- | --- | --- | --- | --- | --- | --- | --- | --- |
| COc1ccc(-c2ccc3c(c2)C(=O)N2CCC[C@H]2C=N3)cc1 [UP2027 (138), (11aS)-7-(4′-Methoxyphenyl)-1,2,3,11a-tetrahydro-5H-pyrrolo[2,1-c]-[1,4]benzodiazepin-5-one] | 1700 | 1350 | 1150 | 1550 | 560 | 9500 | 6600 | – | – | – | – | CC50 [6]: 8000 nM |
| COC(=O)CC1=CN2C(=O)c3cc(OC)c(OCc4ccccc4)cc3N=C[C@@H]2C1 [UP2003 (24)] | 12 | 16 | 40 | 120 | 14.5 | – | – | 700 | 700 | 1400 | – | CC50 [9]: 7600 nM; CC50 [13]: 6000 nM; CC50 [14]: 9500 nM; CC50 [15]: 5200 nM |
| COc1cc2c(cc1OCCCOc1cc3c(cc1OC)C(=O)N1CCC[C@@H]1C=N3)N=C[C@@H]1CCCN1C2=O [DSB-120, reference compound] | – | – | – | – | – | – | – | – | – | – | – | IC50 ([16]; Homo sapiens, A2780cisR, 96 h, read-out: IC50 A2780cisR): 210 nM; IC50 ([16]; Homo sapiens, A2780cisR, 96 h, read-out: IC50 A2780cis^a): 210 nM; Induced ΔTa after incubation at 37° C. for 0 h ([17]; pH 7.00, 0 h): 10.2 °C; Induced ΔTa after incubation at 37° C. for 4 h ([17]; pH 7.00, 4 h): 13.1 °C; Induced ΔTa after incubation at 37° C. for 18 h ([17]; pH 7.00, 18 h): 15.1 °C; IC50 ([18]; Homo sapiens, A2780, 96 hours): 7.2 nM |
| COc1cc2c(cc1OCc1ccccc1)N=C[C@@H]1CC(=O)CN1C2=O [UP2067 (172)] | – | – | – | – | – | – | 800 | 3000 | 7400 | 5800 | 800 | IC50 ([1]; SK-OV-3, 96 h, read-out: IC50 Skov3, 96 hours, sulphorhodamine B): 540 nM; IC50 ([2]; CH1, 96 h, read-out: IC50 CH1, 96 hours, sulphorhodamine B): 165 nM; IC50 ([3]; 96 h, read-out: IC50 CH1cisR, cisplatin-resistant, 96 hours, sulphorhodamine B): 180 nM; IC50 ([4]; 96 h, read-out: IC50 A2780cisR, cisplatin-resistant, 96 hours, sulphorhodamine B): 390 nM; IC50 ([5]; A2780, 96 h, read-out: IC50 A2780, 96 hours, sulphorhodamine B): 115 nM; CC50 [19]: 6800 nM; CC50 [6]: 5000 nM; CC50 [21]: 6600 nM; CC50 [13]: 5400 nM; CC50 [22]: 800 nM; CC50 [23]: 600 nM |
| C=C1C[C@H]2C=Nc3cc(OC)c(OC)cc3C(=O)N2C1 [UP2064 (74), (11aS)-7,8-Dimethoxy-2-methylidene-1,2,3,11a-tetrahydro-5H-pyrrolo[2,1-c][1.4]benzodiazepin-5-one] | 390 | 66 | 84 | 360 | 150 | 1700 | 800 | 600 | 900 | 600 | 2300 | CC50 [21]: 2600 nM; CC50 [24]: 7400 nM |
| COC(=O)CC1=CN2C(=O)c3cc(OC)c(OC)cc3N=C[C@@H]2C1 [UP2065 (42)] | 450 | 115 | 150 | 460 | 360 | 3500 | 800 | – | 4700 | 4000 | 800 | – |
| O=C1c2cc(-c3cccc([N+](=O)[O-])c3)ccc2N=C[C@@H]2CCCN12 [UP2029 (140), (11aS)-7-(3′-Nitrophenyl)-1,2,3,11a-tetrahydro-5H-pyrrolo[2,1-c][1,4]benzodiazepin-5-one] | 1400 | 22500 | 14000 | 32000 | 34500 | – | – | – | – | – | – | cytotoxic activity (LC50 below 10 μM) [25]: completely abolished cytotoxic activity |
| N.N.[Cl][Pt][Cl] [Cisplatin, reference compound] | – | – | – | – | – | – | – | – | – | – | – | IC50 ([16]; cisplatin-resistant subline, 96 hours at 37° C., Sulforhodamine B, read-out: IC50 A2780cis^a): 8400 nM; IC50 ([18]; 96 hours at 37° C., Sulforhodamine B): 265 nM |
